# Description: FIG. 5: TG-DSC diagram of crystalline form of 5-amino-2,3-dihydro-1,4-phthalazinedione produced by the method according to the invention. Upper trace: Mass loss determined by TG. Lower trace: Heat flow determined by DSC
smiles,measurement,setting,value
"Nc1cccc2c(=O)[nH][nH]c(=O)c12 [crystalline form of luminol, 5-amino-2,3-dihydrophthalazine-1,4-dione]",solid state transformation to other forms,"TG-DSC, until thermal degradation of the crystalline compound sets in (FIG. 5)",no solid state transformation to other forms is observed
same,thermal stability up to,"simultaneous TG and DSC, solid crystalline form (FIG. 5)",up to 328±1 °C
